# In US20190209472A1, “FORMULATIONS FOR DERMAL DELIVERY OF POLYMER CONJUGATES OF INDOLOCARBAZOLE COMPOUNDS WITH REDUCED EXPOSURE” (Sienna Biopharmaceuticals, Inc., priority 2017, published 2019):
# Read-outs that look alike come from different tables or passages of the source.
# Test system: lesions of psoriasis vulgaris
# Source text: This was a Phase I, single-center, randomized, double-blind, placebo-controlled study in male and female patients with stable psoriasis vulgaris aged >18 and <71 years. Sixteen patients were enrolled in 2 treatment groups. […] Patients attended a screening visit within 21 days prior to Day 1. Patients were then admitted to the CPU in the afternoon of Day −1 and remained resident in the CPU until the morning of Day 8. Patients attended a follow-up visit 7 to 10 days after the last treatment administration on Day 7.
# The ointment was applied by the CPU staff, using a spatula and finger cot.
# Physicians Global Assessment (PGA) scores were assessed at screening, Day 1, Day 7 and at follow-up. Digital photographs of the application sites were also taken on admission to the CPU, Day 7 and at follow-up.
substance,measurement,setting,value
"(9S, 10R, 12R)-10-(3′-mPEG2000-1′,3′-oxazolidine-2′,4′-dione)-2,3,9,10,11,12-hexahydro-9-methyl-1-oxo-9,12-epoxy-1H-diindolo[1,2,3-fg:3′,2′,1′-k,l]pyrrolo[3,4-i][1,6] benzodiazocine] [CT327]",Complete resolution of plaque(s),7-day dosing period,No patients showed complete resolution
same,"PGA Erythma 1: FAINT ERYTHEMA, patients (%)","Plaque 1, DAY 1, N = 12",(16.7%)
same,"PGA Erythma 2: LIGHT RED COLOURATION, patients (%)","Plaque 1, DAY 1, N = 12",(66.7%)
same,"PGA Erythma 3: MODERATE RED COLOURATION, patients (%)","Plaque 1, DAY 1, N = 12",(8.3%)
same,"PGA Erythma 4: BRIGHT RED COLOURATION, patients (%)","Plaque 1, DAY 1, N = 12",(8.3%)
same,"PGA Induration 1: MINIMAL PLAQUE ELEVATION, =0.25 MM, patients (%)","Plaque 1, DAY 1, N = 12",(33.3%)
same,"PGA Induration 2: MILD PLAQUE ELEVATION, =0.5 MM, patients (%)","Plaque 1, DAY 1, N = 12",(41.7%)
same,"PGA Induration 3: MODERATE PLAQUE ELEVATION, =0.75 MM, patients (%)","Plaque 1, DAY 1, N = 12",(25.0%)
same,"PGA Scaling 2: MILD, FINE SCALE DOMINATES, patients (%)","Plaque 1, DAY 1, N = 12",(58.3%)
same,"PGA Scaling 3: MODERATE, COARSE SCALE PREDOMINATES, patients (%)","Plaque 1, DAY 1, N = 12",(33.3%)
same,"PGA Scaling 4: MARKED, THICK, NON-TENACIOUS SCALE DOMINATES, patients (%)","Plaque 1, DAY 1, N = 12",(8.3%)
same,"Physician Static Global Score 1: MINIMAL, patients (%)","Plaque 1, DAY 1, N = 12",(8.3%)
same,"Physician Static Global Score 2: MILD, patients (%)","Plaque 1, DAY 1, N = 12",(58.3%)
same,"Physician Static Global Score 3: MODERATE, patients (%)","Plaque 1, DAY 1, N = 12",(33.3%)
same,"PGA Erythma 1: FAINT ERYTHEMA, patients (%)","Plaque 1, DAY 7, N = 12",(16.7%)
same,"PGA Erythma 2: LIGHT RED COLOURATION, patients (%)","Plaque 1, DAY 7, N = 12",(66.7%)
same,"PGA Erythma 3: MODERATE RED COLOURATION, patients (%)","Plaque 1, DAY 7, N = 12",(8.3%)
same,"PGA Erythma 4: BRIGHT RED COLOURATION, patients (%)","Plaque 1, DAY 7, N = 12",(8.3%)
same,"PGA Induration 1: MINIMAL PLAQUE ELEVATION, =0.25 MM, patients (%)","Plaque 1, DAY 7, N = 12",(66.7%)
same,"PGA Induration 2: MILD PLAQUE ELEVATION, =0.5 MM, patients (%)","Plaque 1, DAY 7, N = 12",(33.3%)
same,"PGA Scaling 0: NO EVIDENCE OF SCALING, patients (%)","Plaque 1, DAY 7, N = 12",(8.3%)
same,"PGA Scaling 1: MINIMAL, OCCASIONAL FINE SCALE OVER LESS THAN 5% OF THE LESION, patients (%)","Plaque 1, DAY 7, N = 12",(58.3%)
same,"PGA Scaling 2: MILD, FINE SCALE DOMINATES, patients (%)","Plaque 1, DAY 7, N = 12",(33.3%)
same,"Physician Static Global Score 1: MINIMAL, patients (%)","Plaque 1, DAY 7, N = 12",(41.7%)
same,"Physician Static Global Score 2: MILD, patients (%)","Plaque 1, DAY 7, N = 12",(50.0%)
same,"Physician Static Global Score 3: MODERATE, patients (%)","Plaque 1, DAY 7, N = 12",(8.3%)
same,"PGA Erythma 1: FAINT ERYTHEMA, patients (%)","Plaque 1, FOLLOW-UP, N = 12",(33.3%)
same,"PGA Erythma 2: LIGHT RED COLOURATION, patients (%)","Plaque 1, FOLLOW-UP, N = 12",(58.3%)
same,"PGA Erythma 4: BRIGHT RED COLOURATION, patients (%)","Plaque 1, FOLLOW-UP, N = 12",(8.3%)
same,"PGA Induration 1: MINIMAL PLAQUE ELEVATION, =0.25 MM, patients (%)","Plaque 1, FOLLOW-UP, N = 12",(33.3%)
same,"PGA Induration 2: MILD PLAQUE ELEVATION, =0.5 MM, patients (%)","Plaque 1, FOLLOW-UP, N = 12",(66.7%)
same,"PGA Scaling 1: MINIMAL, OCCASIONAL FINE SCALE OVER LESS THAN 5% OF THE LESION, patients (%)","Plaque 1, FOLLOW-UP, N = 12",(16.7%)
same,"PGA Scaling 2: MILD, FINE SCALE DOMINATES, patients (%)","Plaque 1, FOLLOW-UP, N = 12",(58.3%)
same,"PGA Scaling 3: MODERATE, COARSE SCALE PREDOMINATES, patients (%)","Plaque 1, FOLLOW-UP, N = 12",(25.0%)
same,"Physician Static Global Score 1: MINIMAL, patients (%)","Plaque 1, FOLLOW-UP, N = 12",(16.7%)
same,"Physician Static Global Score 2: MILD, patients (%)","Plaque 1, FOLLOW-UP, N = 12",(75.0%)
same,"Physician Static Global Score 3: MODERATE, patients (%)","Plaque 1, FOLLOW-UP, N = 12",(8.3%)
same,"PGA Erythma 1: FAINT ERYTHEMA, patients (%)","Plaque 1, SCREENING, N = 12",(8.3%)
same,"PGA Erythma 2: LIGHT RED COLOURATION, patients (%)","Plaque 1, SCREENING, N = 12",(41.7%)
same,"PGA Erythma 3: MODERATE RED COLOURATION, patients (%)","Plaque 1, SCREENING, N = 12",(41.7%)
same,"PGA Erythma 4: BRIGHT RED COLOURATION, patients (%)","Plaque 1, SCREENING, N = 12",(8.3%)
same,"PGA Induration 1: MINIMAL PLAQUE ELEVATION, =0.25 MM, patients (%)","Plaque 1, SCREENING, N = 12",(33.3%)
same,"PGA Induration 2: MILD PLAQUE ELEVATION, =0.5 MM, patients (%)","Plaque 1, SCREENING, N = 12",(50.0%)
same,"PGA Induration 3: MODERATE PLAQUE ELEVATION, =0.75 MM, patients (%)","Plaque 1, SCREENING, N = 12",(8.3%)
same,"PGA Induration 4: MARKED PLAQUE ELEVATION, =1 MM, patients (%)","Plaque 1, SCREENING, N = 12",(8.3%)
same,"PGA Scaling 1: MINIMAL, OCCASIONAL FINE SCALE OVER LESS THAN 5% OF THE LESION, patients (%)","Plaque 1, SCREENING, N = 12",(16.7%)
same,"PGA Scaling 2: MILD, FINE SCALE DOMINATES, patients (%)","Plaque 1, SCREENING, N = 12",(33.3%)
same,"PGA Scaling 3: MODERATE, COARSE SCALE PREDOMINATES, patients (%)","Plaque 1, SCREENING, N = 12",(41.7%)
same,"PGA Scaling 4: MARKED, THICK, NON-TENACIOUS SCALE DOMINATES, patients (%)","Plaque 1, SCREENING, N = 12",(8.3%)
same,"Physician Static Global Score 1: MINIMAL, patients (%)","Plaque 1, SCREENING, N = 12",(16.7%)
same,"Physician Static Global Score 2: MILD, patients (%)","Plaque 1, SCREENING, N = 12",(41.7%)
same,"Physician Static Global Score 3: MODERATE, patients (%)","Plaque 1, SCREENING, N = 12",(33.3%)
same,"Physician Static Global Score 4: MARKED, patients (%)","Plaque 1, SCREENING, N = 12",(8.3%)
same,"PGA Erythma 2: LIGHT RED COLOURATION, patients (%)","Plaque 2, DAY 1, N = 12",(33.3%)
same,"PGA Induration 1: MINIMAL PLAQUE ELEVATION, =0.25 MM, patients (%)","Plaque 2, DAY 1, N = 12",(8.3%)
same,"PGA Induration 2: MILD PLAQUE ELEVATION, =0.5 MM, patients (%)","Plaque 2, DAY 1, N = 12",(16.7%)
same,"PGA Induration 3: MODERATE PLAQUE ELEVATION, =0.75 MM, patients (%)","Plaque 2, DAY 1, N = 12",(8.3%)
